Measurements: patent publication US7304052B2, “Substituted homopiperidinyl benzimidazole analogues as fundic relaxants” (Janssen Pharmaceuitca N.V., priority 1999, dated 2007)

What follows are molecules tested on gastric tone (fundus of the stomach) (assay: Gastric tone measured by an electronic barostat in conscious dogs). Conditions: mean maximal change in intragastric volume on relaxation of the fundus, 1 hour after S.C. administration, 0.63 mg/kg, conscious female beagle dogs, barostat at 2 mmHg.
Format: in vivo, dog
Experimental: Gastric tone cannot be measured by manometric methods. Therefore an electronic barostat was used. This allows the study of the physiological pattern and regulation of gastric tone in conscious dogs and the influence of test-compounds on this tone.
The barostat consists of an air injection system which is connected by a double-lumen 14-French polyvinyl tube to an ultrathin flaccid polyethylene bag (maximal volume: ±700 ml). Variations in gastric tone were measured by recording changes in the volume of air within an intragastric bag, maintained at a constant pressure. The barostat maintains a constant pressure (preselected) within a flaccid air-filled bag introduced into the stomach, changing the volume of air within the bag by an electronic feedback system.
Thus, the barostat measures gastric motor activity (contraction or relaxation) as changes in intragastric volume (decrease or increase resp.) at a constant intragastric pressure. The barostat consists of a strain gauge linked by an electronic relay to an air injection-aspiration system Both the strain gauge and the injection system are connected by means of double-lumen polyvinyl tube to an ultrathin polyethylene bag. A dial in the barostat allows selection of the pressure level to be maintained within the intragastric bag.
Female beagle dogs, weighing 7-17 kg, were trained to stand quietly in Pavlov frames. They were implanted with a gastric cannula under general anaesthesia and aseptic precautions. After a median laparotomy, an incision was made through the gastric wall in longitudinal direction between the greater and the lesser curve, 2 cm above the nerves of Latarjet. The cannula was secured to the gastric wall by means of a double purse string suture and brought out via a stub wound at the left quadrant of the hypochondrium Dogs were allowed a recovery period of two weeks.
At the beginning of the experiment, the cannula was opened in order to remove any gastric juice or food remnants. If necessary, the stomach was cleansed with 40 to 50 ml lukewarm water. […]

Compound	Maximum change in volume (mean) [mL]
c1ccc(CN2CCCC(c3nc4ncccc4[nH]3)CC2)cc1 (racemic) [Compound 69, (±)-2-[hexahydro-1-(phenylmethyl)-1H-azepin-4-yl]-1H-imidazo[4,5-b]pyridine]	87
c1ccc(CN2CCCC(c3nc4ncccc4[nH]3)CC2)cc1 (single isomer, unassigned; (+)) [Compound 81, (+)-2-[hexahydro-1-(phenylmethyl)-1H-azepin-4-yl]-1H-imidazo[4,5-b]pyridine]	183
c1ccc(CN2CCCC(c3nc4ncccc4[nH]3)CC2)cc1 (single isomer, unassigned; (-)) [Compound 80, (−)-2-[hexahydro-1-(phenylmethyl)-1H-azepin-4-yl]-1H-imidazo[4,5-b]pyridine]	55
